# According to patent US9433710B2, “Biocompatible implant” (LABORATORIS SANIFIT, S. L., priority 2011, dated 2016):
# What was measured:
# RAW 264.7 cells [1] = test: RANKL-induced osteoclast (OCL) formation, TRAP staining; type: cell-based, mouse; details: 5 days
# Protocol: Osteoclast-like cells were generated in culture from RAW 264.7 cells. 20,000 cells/cm2 were seeded in 24-well plates and placed in the CO2 incubator overnight to allow the cells to attach to the surface. After 24 h, the culture medium was replaced with media containing 100 ng/mL RANKL. Osteoclasts were successfully generated by dosing with RANKL every 48 h over the course of 5 days. To confirm the generation of multinucleated osteoclast-like cells, the cultured cells were stained for the enzyme TRAP using the TRAP-staining kit, according to the manufacturer's instructions. TRAP is the enzyme that has been used as a marker of osteoclast function for more than 20 years. TRAP-positive multinucleated osteoclasts were visualized by light microscopy and photographed. Each OCL formation assay was performed at least 3 times. To examine the effect of IP6 on OCL formation, 20,000 cells/cm2 were seeded in 24-well plates and, after 24 h, the culture medium was replaced with media containing 100 ng/mL RANKL and different doses of IP6 (0.1, 1, 10, 100 μM). Treatments were added after changing the media every 48 h over the course of 5 days. The effect of IP6 on OCL formation was assessed by analysis of the number of TRAP-positive cells, gene expression levels of osteoclast and functional markers, resorption activity on dentin discs and actin ring formation.
# RAW 264.7 cells [2] = test: Resorption pit assay on dentine discs; type: cell-based, mouse; details: 1 μM IP6 during osteoclastogenesis
# Protocol: RAW 264.7 cells were seeded on dentine slices at a density of 20,000 cells/cm^2. To study the effect of IP6 on OCL formation cells were cultured with media containing 100 ng/mL RANKL and IP6 (1 μM) over the course of the entire experiment. To study the effect of IP6 on mature osteoclasts-like cells. OCLs were generated by dosing RAW 264.7 cells with RANKL over the course of 6 days and then treated with IP6 (1 μM) for 4 days. After the culturing period, cells were removed from the dentine slices by sonication in 0.1 N NaOH for 2 minutes, stained in hematoxylin for 40 seconds and washed in distilled water. The surface of each dentine slice was examined by light microscopy for evidence of lacunar resorption and quantitative analysis of the resorption area was performed with Image J software 1.44p (NIH, USA).
# [3] = tested on: human umbilical cord mesenchymal stem cells (hUC-MSCs); test: Real-time RT-PCR of osteoblast markers in hUC-MSCs under osteogenic conditions; type: cell-based; details: 4 μM IP6 for 19 days
# Protocol: hUC-MSCs from two different donors were seeded (n=12) in 24-well plates and grown to confluence in growth media consisting of DMEM-LG supplemented with penicillin (50 IU/ml), streptomycin (50 μg streptomycin/mil) and 20% FBS. Cells were cultured at 37° C. in a humidified atmosphere of 5% CO2. At confluence (designated as day 0), cells were grown in differentiation media consisting of growth media supplemented with hydrocortisone (200 nM), ascorbic acid (50 μg/ml) and β-glycerophosphate (10 mM). Cell culture media, with or without IP6, was refreshed twice a week over a 19-day time period. The experimental procedure developed in example 5 was used. In this example, Real-time PCR was performed for two housekeeping genes: beta-actin, GAPDH; and four osteoblast markers: Runx2, Col1A, ALP and OC.
# RAW 264.7 cells [4] = test: LDH cytotoxicity assay; type: cell-based, mouse; details: IP6 for 24 hours
# Protocol: RAW cells 264.7 were seeded at a density of 20,000 cells/cm2 in 24-well plate and cultured for 24 h. After cell attachment, culture media was changed and different doses of) IP6 were added. Cells were cultured for additional 24 hours and culture media was collected to test cytotoxicity (LDH activity). LDH cytotoxicity assay was performed using the Cytotoxicity Detection Kit according to the manufacturer's protocol. This colorimetric assay quantifies activity of LDH released from the cytosol of damaged cells into the supernatant and thus serves as an index of cell death.
# Results were presented relative to the LDH activity in the media of control cells (low control, 0% of cell death) and of cells treated with 1% Triton X-100 (high control, 100% death) using the equation: Cytotoxicity (%)=(exp value−low control)/(high control−low control)*100. 3. Cell Proliferation Assay
# RAW 264.7 cells [5] = test: Real-time RT-PCR of osteoclast gene and functional markers; type: cell-based, mouse; details: RANKL-treated cells, 5 days
# Protocol: To examine the effect of IP6 on OCL formation, 20,000 cells/cm2 were seeded in 24-well plates and, after 24 h, the culture medium was replaced with media containing 100 ng/mL RANKL and different doses of IP6 (0.1, 1, 10, 100 μM). Treatments were added after changing the media every 48 h over the course of 5 days. The effect of IP6 on OCL formation was assessed by analysis of the number of TRAP-positive cells, gene expression levels of osteoclast and functional markers, resorption activity on dentin discs and actin ring formation.
# Total RNA was isolated with Tripure from cells treated as describe above, following the instructions of the manufacturer. RNA was quantified using a spectrophotometer set at 260 nm (Nanodrop, Thermo Fisher Scientific Inc, US).
# The same amount of total RNA ([…]) from each sample was reverse transcribed to cDNA at 37° C. for 60 minutes in a final volume of […], using High Capacity RNA to cDNA kit (Applied Biosystems, USA). Each cDNA was diluted 1/5 and aliquots, to avoid freezing and thawing cycles, were stored at −20° C. until the PCR reactions were carried out.
# Real-time PCR was performed for two housekeeping genes: 18S rRNA, GAPDH; three osteoclast gene markers: TRAP, CalcR, CFMS; and four osteoclast functional markers: CtsK, MMP-9, Car2 and H+-ATPase.
# Real-time PCR was performed in the Lightcycler 480® (Roche Diagnostics, Mannheim, Germany) using SYBR green detection. Each reaction contained 7 μl Lightcycler-FastStart DNA MasterPLUS SYBR Green I (containing Fast Start Taq polymerase, reaction buffer, dNTPs mix, SYBRGreen I dye and MgCl2), 0.5 μM of each, the sense and the antisense specific primers (Table 1) and 3 μl of the cDNA dilution in a final volume of 10 μl. The amplification program consisted of a preincubation step for denaturation of the template cDNA (5 min 95° C.), followed by 45 cycles consisting of a denaturation step (10 s 95° C.), an annealing step (10 s 60° C.) and an extension step (10 s 72° C.). After each cycle, fluorescence was measured at 72° C. A negative control without cDNA template was run in each assay.
# To allow relative quantification after PCR, standard curves were constructed from standard reactions for each target and housekeeping genes. The crossing point readings for each of the unknown samples were used to calculate the amount of either the target or housekeeping relative to a standard curve, using the Second Derivative Maximum Method. Relative mRNA levels were calculated as the ratio of relative concentration for the target genes in the same sample using the Advanced Relative Quantification Method provided by the LightCycler 480 analysis software version 1.5 (Roche Diagnostics, Mannheim, Germany).
# [6] = background statement; cited from earlier work
# RAW 264.7 cells [7] = test: Cell proliferation assay (BrdU incorporation); type: cell-based, mouse; details: IP6 for 24 hours, BrdU for 6 h
# Protocol: RAW cells 264.7 were seeded at a density of 2,500 cells/well in a 96-well plate and cultured for 24 h. After cell attachment, culture media was changed and different doses of IP6 were added. Cells were cultured for additional 24 hours and BrdU was added for the last 6 hours. Incorporation of BrdU was determinated by Cell Proliferation ELISA kit as described by the manufacturer.
# bone resorption = details: background statement; cited from earlier work
smiles,measurement,setting,value
"O=P(O)(O)O[C@H]1[C@H](OP(=O)(O)O)[C@@H](OP(=O)(O)O)[C@H](OP(=O)(O)O)[C@@H](OP(=O)(O)O)[C@H]1OP(=O)(O)O [IP6, Myo-inositol-1,2,3,4,5,6-hexakisphosphate]",osteoclastogenesis induced by RANKL,RAW 264.7 cells [1]; 100 ng/mL RANKL,decreases
same,number of TRAP positive cells,RAW 264.7 cells [1]; RANKL-treated cells,decreased
same,RANKL-induced osteoclast bone resorption ability,RAW 264.7 cells [2],inhibits
same,ALP mRNA levels compared to the control group,[3],higher
same,Col1A mRNA levels compared to the control group,[3],lower
same,OC mRNA levels compared to the control group,[3],higher
same,Runx-2 mRNA levels compared to the control group,[3],higher
same,osteoblast differentiation of hUC-MSCs,[3],increases
same,cell viability (LDH activity),RAW 264.7 cells [4],without affecting
same,MMP-9 mRNA levels,RAW 264.7 cells [5],decreased
same,TRAP mRNA levels,RAW 264.7 cells [5],decreased
same,calcitonin receptor mRNA levels,RAW 264.7 cells [5],decreased
same,cathepsin K mRNA levels,RAW 264.7 cells [5],decreased
same,hydroxyapatite dissolution,[6],potent inhibitor
same,cell proliferation (BrdU),RAW 264.7 cells [7],without affecting
same,bone resorption in animal models of osteoporosis,bone resorption,inhibitor of bone resorption
